{"source": "paper PMC12495412", "about": "“Coumarin/nitrogen-bearing heterocyclic hybrid-loaded electrospun PMMA/PVP nanofibrous scaffolds for accelerating topical wound healing rates: synthesis and in vitro bio-evaluation” (RSC Advances, 2025)", "key": {"A549 cells": {"test_system": "A549 cells", "experiment": "MTT anticancer assay", "format": "cell-based, human", "details": "Homo sapiens, A549, lung carcinoma cells, 48 h", "from_the_text": "(§1) MTT assay: the normal cell line (Wi-38), colon cancer (Caco-2), lung cancer (A549), and breast cancer (MDA) cell lines were sourced from ATCC, USA. All different cell lines were cultivated and preserved in DMEM medium (SERANA, Germany), accompanied by 10% FBS (Gibco, USA) and 1% Pen/Strep solution (Lonza, USA). The newly prepared derivatives at various doses were considered for their anticancer activity and their safety on normal cells, applying MTT (3-[4, 5-dimethylthiazol]-2, 5-diphenyltetrazolium bromide) methods.[22] At first, all normal and cancer cell lines (1.0 ×10^4) were inoculated in 4 antiseptic 96-well tissue culture microplates and incubated for 24 h in a CO2 incubator. After cell attachments, the prepared derivatives were added to both normal Wi-38 cells at diverse concentrations of (6.25–200 μg mL^−1, 2-fold) and cancer cells at different concentrations of (3.125–100 μg mL^−1, 2-fold) in triplicate and incubated for another 48 h at 37 °C in a CO2 incubator with an adjusted concentration of 5%. After that, the treated cells were cleaned three times with PBS to remove debris and dead cells. Next, 200 μL of 0.5 mg mL^−1 MTT dye solution in PBS was mixed in each well, and the cells were further kept for 3 h at 37 °C in a 5% CO2 incubator. After that, MTT was removed and 200 μL of DMSO was added to each well. The optical density (OD) was recorded at 570 nm via a microplate reader (B.M.G. LabTech, Germany). Basic cells (untreated) were utilized as negative control cells, and 5-fluorouracil (5-FU) was included as a standard chemotherapy drug. The qualified cell viability (%) was evaluated as in equation (eqn (1)):1 Relative cell viability (%) = […] A1 is the OD of the examined derivative, A0 is the OD of the standard, and AU is the OD of the untreated cells.\n(§2) Anticancer activity assay: the anticancer effect of each derivative was assessed by evaluating the half-maximal inhibitory concentration (IC50) value via the GraphPad Prism 7.0 software. However, SI (selective index) values of each derivative were estimated by splitting the IC50 value of healthy cells by the IC50 value of malignant cells, as previously reported.[23] The effects of the created derivatives on the morphology of MDA cells were evaluated at IC50 doses and captured by phase-contrast microscopy (Olympus, Germany) in comparison to untreated control cells."}, "MDA cells": {"test_system": "MDA cells", "experiment": "MTT anticancer assay", "format": "cell-based, human", "details": "Homo sapiens, Breast carcinoma cell, 48 h", "from_the_text": "as §1, §2"}, "all applied pathogens": {"test_system": "all applied pathogens", "experiment": "Agar-well diffusion of synthesized compounds, whole panel", "format": "cell-based", "from_the_text": "(§3) The antimicrobial activity of the prepared compounds was estimated through an agar-well diffusion method as adapted from the modified Kirby–Bauer protocol.[24] In this test, microbial pathogens were applied, including Staphylococcus aureus ATCC 25923 (S. aureus), Streptococcus mutans ATCC 25175 (S. mutans), Bacillus cereus ATCC 19637 (B. cereus), Bacillus aureus ATCC 25923 (B. aureus), Bacillus epidermidis ATCC 14990 (B. epidermidis), and Bacillus subtilis ATCC 11774 (B. subtilis) as Gram-positive bacteria, and Pseudomonas aeruginosa ATCC 27853 (P. aeruginosa), Klebsiella pneumonia ATCC 13883 (K. pneumonia), and Salmonella typhimurium ATCC 14028 (S. typhimurium), Salmonella pneumoniae ATCC 10031(S. pneumoniae), Escherichia coli ATCC 10536 (E. coli), and Salmonella paratyphi ATCC 9150 (S. paratyphi) as Gram-negative bacteria. Additionally, Candida albicans (ATCC 10231), Candida krusei ATCC 6258 (C. krusei), Candida glabrata ATCC 66032 (C. glabrata), andCandida parapsilosis ATCC 22019 (C. parapsilosis) were applied as models of unicellular fungi. The pre-inoculation cultures of the pathogens were prepared on Muller–Hinton broth and cultivated for 24 h at 37 °C. The agar-well test was prepared on Muller–Hinton agar with 100 μL of each pathogen pre-culture (0.5 McFarland conc.) and uniformly distributed on the plate surface. Under aseptic conditions, six wells were created on the agar surface using a sterile corkborer (9 mm). To each well, 100 μL of the prepared compound (10 mg mL^−1) was separately inserted into each plate. All plates were incubated for 24 h at 37 °C; the established inhibition zones (Halo-zones) surrounding the wells indicated positive antimicrobial activity and were stated as the radius of the inhibition zone (mm)."}, "S. mutans": {"test_system": "S. mutans", "experiment": "Agar-well diffusion of synthesized compounds", "format": "cell-based, Streptococcus mutans ATCC 25175", "details": "Streptococcus mutans, 100 μL of 10 mg mL^−1 per well, 24 h, 37 °C", "from_the_text": "as §3"}, "Wi-38 cells": {"test_system": "Wi-38 cells", "experiment": "MTT cytotoxicity assay, normal cells", "format": "cell-based", "details": "WI-38, normal human lung fibroblast cells, 48 h", "from_the_text": "as §1, §2"}, "Caco-2 cells": {"test_system": "Caco-2 cells", "experiment": "MTT anticancer assay", "format": "cell-based", "from_the_text": "as §1, §2"}, "P. aeruginosa": {"test_system": "P. aeruginosa", "experiment": "Agar-well diffusion of synthesized compounds", "format": "cell-based, Pseudomonas aeruginosa ATCC 27853", "details": "Pseudomonas aeruginosa, 100 μL of 10 mg mL^−1 per well, 24 h, 37 °C", "from_the_text": "as §3, with “Under aseptic conditions, six wells were created on the agar surface using a sterile corkborer (9 mm). To each well, 100 μL of the prepared compound (10 mg mL^−1) was separately inserted into each plate. All plates were incubated for 24 h at 37 °C; the established inhibition zones (Halo-zones) surrounding the wells indicated positive antimicrobial activity and were stated as the radius of the inhibition zone (mm).” left out"}, "K. pneumonia": {"test_system": "K. pneumonia", "experiment": "Agar-well diffusion of synthesized compounds", "format": "cell-based, Klebsiella pneumonia ATCC 13883", "details": "Klebsiella pneumoniae, 100 μL of 10 mg mL^−1 per well, 24 h, 37 °C", "from_the_text": "as §3, with “Under aseptic conditions, six wells were created on the agar surface using a sterile corkborer (9 mm). To each well, 100 μL of the prepared compound (10 mg mL^−1) was separately inserted into each plate. All plates were incubated for 24 h at 37 °C; the established inhibition zones (Halo-zones) surrounding the wells indicated positive antimicrobial activity and were stated as the radius of the inhibition zone (mm).” left out"}}}
{"compound": "O=C(Nc1ccc(Nc2ccnc3cc(Cl)ccc23)cc1)c1cc2ccccc2oc1=O", "note": "[Compound A, N-(4-((7-chloroquinolin-4-yl)amino)phenyl)-2-oxo-2H-chromene-3-carboxamide]", "values": [{"measurement": "IC50", "setting": "A549 cells", "result": "11.5 ± 1.75", "unit": "µg/mL"}, {"measurement": "IC50", "setting": "MDA cells", "result": "5.46 ± 0.27", "unit": "µg/mL"}, {"measurement": "Antimicrobial activity", "setting": "all applied pathogens", "result": "wide-spectrum antibacterial activity"}, {"measurement": "zone of inhibition at 10 mg/mL", "setting": "S. mutans", "result": "~14", "unit": "mm"}, {"measurement": "IC50", "setting": "Wi-38 cells", "result": "139 ± 12", "unit": "µg/mL"}, {"measurement": "IC50", "setting": "Caco-2 cells; Homo sapiens, Caco-2, colon carcinoma cells, MTT, 48 h", "result": "9.03 ± 1.53", "unit": "µg/mL"}, {"measurement": "SI Caco-2", "setting": "Caco-2 cells; IC50 Wi-38 / IC50 Caco-2", "result": "15.38 ± 1.33"}, {"measurement": "zone of inhibition at 10 mg/mL", "setting": "P. aeruginosa", "result": "~14", "unit": "mm"}, {"measurement": "zone of inhibition at 10 mg/mL", "setting": "K. pneumonia", "result": "~14", "unit": "mm"}]}
